Assay results: patent publication US20230348538A1, “METHOD FOR TREATMENT OF DRY EYE COMPRISNG APPLYING P55PIK INHIBITOR” (Wuhan Yicheng Biological Technology Co., Ltd., priority 2020, published 2023)

Experiments:
[1] = system: rabbit model of dry eye (0.1% benzalkonium chloride); test: Rabbit model of dry eye: tear film break-up time test; assay type: in vivo, New Zealand white rabbits
Description: 1.2.1 Grouping: thirty New Zealand white rabbits were randomly divided into three groups, each comprising 10 rabbits: a blank control group, a solvent control group, and a drug treatment group.
1.2.2 Preparation of a rabbit model of dry eye: the right eye of each rabbit was used to establish a dry eye rabbit model by administering 0.1% benzalkonium chloride eye drops twice a day for 4 weeks. After 4 weeks, the dry eye rabbit model was evaluated, with the conjunctiva appearing dry, tear production being reduced, and Schirmer test values being less than 10 mm/5 min (compared to the control group, where all Schirmer test values were above 10 mm).
1.2.3 Drug preparation and usage: a liquid formulation of 0.1% TAT-N16 peptide eye drops were prepared by dissolving the peptide raw materials in physiological saline according to a weight ratio of 0.1%. The eye drops comprising 0.1% TAT-N16 peptide were administered 2 drops, 3 times a day for 7 days. […]
1.3 Specimen collection and animal testing were conducted by the same individual. […] The rabbit conjunctiva appearance, fluorescein staining, tear film break-up time were analyzed using a slit lamp before and on days 4 and 7 after treatment; additionally, the Schirmer's test and conjunctival impression cytology (CIC) were carried out.
1.3.2 Tear film break-up time test: the fluorescein sodium ophthalmic strips were placed on the lower conjunctival sac for a moment, so that the fluorescein sodium was evenly distributed on the ocular surface; the eyelid was maintained open and observed under cobalt blue filter on a slit lamp; the tear film break-up time was recorded as the number of seconds that elapse between the last blink and the appearance of the first dry spot in the tear film of the cornea; The time from the opening of the eyelid to the appearance of the first dry spot on the tear film was recorded under a slit lamp microscope with cobalt blue light; each eye was measured three times, and the average of the three measurements was recorded in seconds.

[2] = system: rat model of dry eye caused by low tear secretion; test: Rat model of dry eye caused by low tear secretion (atropine): lacrimal secretion test (Schirmer's test II); assay type: in vivo, SD rats
Description: 1.2.2 Modeling: a rat model of dry eye caused by low tear secretion, was established using the Burgalassi method of atropine injection into the lacrimal glands; eighteen laboratory rats, with equal numbers of male and female, were given 0.4% oxybucaine hydrochloride eye drops in both eyes and injected with 0.25 mL of 0.5 mg/mL atropine into the lacrimal glands four times a day for both eyes; the results of lacrimal secretion test were recorded 0.5 hours after the atropine injection every day; and the atropine injection was continued until the 7th day.
Grouping and administration: six laboratory rats, with equal numbers of male and female, were used as the normal control group and were not modeled; the eighteen successfully modeled laboratory rats were randomly divided into three model groups, with 6 rats in each model group, half male and half female; Model group 1 was the blank control group and received no treatment; Model group 2 was the solvent control group and treated with solvent eye drops that contained a solvent but no TAT-N16 peptide; Model group 3 was the drug treatment group and was treated with eye drops comprising 0.1% TAT-N16 peptide; the eye drops was administered four times a day (1 drop/time) for 7 days; the amount of the lacrimal secretion of each eye was recorded on days 0, 4 and 7 after treatment; the expression levels of P55PIK gene and p55PIK protein in the rat eyes of the normal control group and the model groups were detected.
1.2.2.1 Lacrimal secretion test (Schirmer's test II): due to the smaller eyeballs of SD rats compared to human, the Schirmer tear test strips designed for human use were not suitable for use in the SD rats; therefore, the Schirmer's test II was conducted by cutting a 5 mm x 35 mm Schirmer tear test strip into two strips of 2.5 mm×35 mm each, folding the front end, and lightly placing the Schirmer tear test strip at the junction of the posterior-middle ⅓ of the lower eyelid; after 5 minutes, the Schirmer tear test strips were removed; and the length of the Schirmer tear test strips wetted by tears were measured for 2 minutes and the measurement was repeated three times to obtain an average value; the results were recorded before the treatment, and on the 4th and 7th day after treatment.

## TAT-N16 peptide: cell-penetrating artificial peptide, sequence SEQ ID NO: 2, constructed by linking the peptide N16 to a TAT sequence; P55PIK inhibitor (YGRKKRRQRRRMMPYSTELIFYIEMDP)
[1]; 0 d / before treatment (baseline), drug treatment group
  Tear film break-up time (BUT) values: 8.24 ± 1.13 s
[1]; 4 d, 0.1% eye drops 2 drops, 3 times a day
  Tear film break-up time (BUT) values: 11.72 ± 1.27 s
[1]; 7 d, 0.1% eye drops 2 drops, 3 times a day
  Tear film break-up time (BUT) values: 15.31 ± 1.85 s
[2]; 4th and 7th day of treatment, P<0.05
  Tear secretion compared with the control groups: significantly higher
[2]; after 4 days of treatment, 0.1% eye drops four times a day
  Schirmer's test II values (x ± s, n = 6): 5.74 ± 1.59 mm
[2]; after 7 days of treatment, 0.1% eye drops four times a day
  Schirmer's test II values (x ± s, n = 6): 8.58 ± 1.73 mm
[2]; before treatment (baseline), drug treatment group, 0.1% eye drops
  Schirmer's test II values (x ± s, n = 6): 3.29 ± 1.34 mm
